# Data from patent publication US20260158017A1, “KIF18A INHIBITOR” (WIGEN BIOMEDICINE TECHNOLOGY (SHANGHAI) CO., LTD., priority 2021, published 2026).
# Molecular target: T1, Recombinant human KIF18A (1-467His-tagged) protein (Homo sapiens, UniProt Q8NI77)
# T1 construct: Recombinant human KIF18A (1-467His-tagged) protein; His; made in house
# Assay: KIF18A enzyme assay (microtubule-stimulated ATPase activity, ADP-Glo)
# Type: biochemical
# Settings: 30 nM KIF18A, 75 μM ATP, 30 μg/mL pig microtubules; read-out: Inhibitory activity against KIF18A IC50
# Procedure: In Vitro Assay of the Compounds of the Present Invention for Inhibiting Enzymatic Activity of KIF18A
# KIF18A enzyme assay: The enzymatic activity of KIF18A after treatment with the compounds was measured by an assay of microtubule-stimulated ATPase activity. ADP generated from the ATPase reaction was measured in this assay. The compounds were serially diluted 2-fold in DMSO over a range of 22 concentration points. […] Concentrations of KIF18A protein, microtubules, and ATP in the reaction were optimized for a standardized homogenous enzyme assay using an ADP-Glo kinase/ATPase assay kit. A reaction buffer [(15 mM Tris, pH 7.5), 10 mM MgCl2, 0.01% PluronicF-68, 1 μM paclitaxel, and 30 μg/mL pig microtubules] was prepared. […] The resulting reaction mixture was incubated at room temperature for another 15 min. 5 μL of ADP-Glo reagent and 2.5 μL of the reaction mixture were mixed and the resulting mixture was incubated at room temperature for 40 min. 10 μL of ADP-Glo detection reagent was added and the mixture was incubated at room temperature for 40 min. Luminescence was read using a microplate reader and compared with that of the DMSO group, and then the inhibition percentages and IC50 values of the compounds were calculated.
# T1 sequence (Q8NI77 1-467): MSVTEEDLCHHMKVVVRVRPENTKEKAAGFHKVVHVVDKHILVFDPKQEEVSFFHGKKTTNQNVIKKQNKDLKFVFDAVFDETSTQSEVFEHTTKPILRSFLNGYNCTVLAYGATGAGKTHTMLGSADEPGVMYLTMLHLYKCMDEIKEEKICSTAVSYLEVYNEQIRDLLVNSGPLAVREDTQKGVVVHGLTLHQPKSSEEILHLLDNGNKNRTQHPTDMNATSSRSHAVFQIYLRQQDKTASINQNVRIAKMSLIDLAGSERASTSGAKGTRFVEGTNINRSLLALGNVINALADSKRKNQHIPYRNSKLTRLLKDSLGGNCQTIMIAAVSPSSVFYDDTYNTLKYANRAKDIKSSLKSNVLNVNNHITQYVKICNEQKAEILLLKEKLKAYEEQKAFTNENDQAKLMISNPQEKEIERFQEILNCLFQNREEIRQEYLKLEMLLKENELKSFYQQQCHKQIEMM
# T1 sequence (P02550 whole entry partner): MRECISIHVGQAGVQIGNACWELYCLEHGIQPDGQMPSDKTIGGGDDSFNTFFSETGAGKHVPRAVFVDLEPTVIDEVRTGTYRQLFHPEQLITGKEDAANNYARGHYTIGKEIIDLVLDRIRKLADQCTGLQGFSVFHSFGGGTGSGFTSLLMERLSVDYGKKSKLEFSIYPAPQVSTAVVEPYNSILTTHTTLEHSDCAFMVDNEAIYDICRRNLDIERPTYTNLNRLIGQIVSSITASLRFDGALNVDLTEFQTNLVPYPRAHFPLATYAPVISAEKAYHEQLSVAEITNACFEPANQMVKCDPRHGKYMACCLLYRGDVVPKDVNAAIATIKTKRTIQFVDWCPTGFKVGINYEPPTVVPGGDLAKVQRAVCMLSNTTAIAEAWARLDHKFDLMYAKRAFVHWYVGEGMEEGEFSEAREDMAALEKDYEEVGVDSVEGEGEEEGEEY
# T1 sequence (P02554 whole entry partner): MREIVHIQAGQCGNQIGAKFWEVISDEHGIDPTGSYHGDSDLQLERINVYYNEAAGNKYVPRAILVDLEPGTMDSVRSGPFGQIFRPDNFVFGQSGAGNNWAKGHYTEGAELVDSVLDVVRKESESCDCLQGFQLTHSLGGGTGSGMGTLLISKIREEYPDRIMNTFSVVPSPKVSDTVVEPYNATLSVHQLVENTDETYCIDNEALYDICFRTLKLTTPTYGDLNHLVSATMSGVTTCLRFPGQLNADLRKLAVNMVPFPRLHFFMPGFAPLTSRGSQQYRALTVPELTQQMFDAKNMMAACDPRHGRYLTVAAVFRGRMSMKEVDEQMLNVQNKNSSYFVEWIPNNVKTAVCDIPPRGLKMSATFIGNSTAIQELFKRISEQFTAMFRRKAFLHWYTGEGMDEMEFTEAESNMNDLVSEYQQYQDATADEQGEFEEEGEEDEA
row,Compound,IC50 [nM]
1,COc1ccc(NC(=O)c2cnc(S(=O)(=O)NCCO)cc2N2CCC3(CC2)CC3)nc1N1CCC2(CC2)C1 [Compound 310],≤ 100
2,O=C(Nc1ccc([N+](=O)[O-])c(N2CCOCC2)n1)c1ccc(S(=O)(=O)NCCO)cc1N1CCC2(CC1)CC2 [Compound 92],≤ 100
3,C[C@H](CO)NS(=O)(=O)c1ccc(NC(=O)c2ccc(OCF)c(N3CCO[C@H](C)C3)n2)c(N2CCC3(CC2)CC3)c1 [Compound 576],100 to 500
4,O=C(Nc1cnc(NS(=O)(=O)CCO)cc1N1CCC2(CC1)CC2)c1ccc([N+](=O)[O-])c(OC2CCC2)n1 [Compound 231],≤ 100
5,COc1ccc(C(=O)Nc2cnc(NS(=O)(=O)CCO)cc2N2CCC3(CC2)CC3)nc1N1CCC(C)(F)C1 (centres unmarked) [Compound 360],≤ 100
6,O=C(Nc1cnc(S(=O)(=O)NCCO)cc1N1CCC2(CC1)CC2)c1ccc([N+](=O)[O-])c(N2CCC(F)CC2)n1 [Compound 249],100 to 500
7,COc1ccc(C(=O)Nc2ccc(NS(=O)(=O)CCO)cc2N2CCC3(CC2)CC3)nc1N1CC(F)(F)C1 [Compound 324],≤ 100
8,CSc1ccc(NC(=O)c2ccc(NS(=O)(=O)CCO)cc2N2CCC3(CC2)CC3)nc1NC(C)(C)CO [Compound 603],≤ 100
9,CSc1ccc(NC(=O)c2ccc(NS(=O)(=O)CCO)cc2N2CCC3(CC2)CC3)cc1N1CCC(F)CC1 [Compound 585],≤ 100
10,C[C@H]1CN(c2nc(C(=O)Nc3ccc(S(=O)(=O)NCCO)cc3N3CCC4(CC3)CC4)ccc2[N+](=O)[O-])CCO1 [Compound 179],100 to 500
11,CSc1ccc(NC(=O)c2ccc(NS(=O)(=O)[C@H](C)CO)cc2N2CCC3(CC2)CC3)nc1N1CCC(F)(F)CC1 [Compound 606],≤ 100
12,C[C@H]1CN(c2nc(NC(=O)c3ccc(S(=O)(=O)NCCO)cc3N3CCC4(CC3)CC4)ccc2OCF)CCO1 [Compound 435],≤ 100
13,C[C@@H](CO)S(=O)(=O)Nc1ccc(C(=O)Nc2ccc([N+](=O)[O-])c(N3CCC(F)(F)CC3)c2)c(N2CCC3(CC2)CC3)c1 [Compound 13],≤ 100
14,O=C(Nc1ccc(NS(=O)(=O)CCO)cc1N1CCC2(CC1)CC2)c1ccc([N+](=O)[O-])c(N2CCC3(CC3)C2)n1 [Compound 166],≤ 100
15,COc1ccc(C(=O)Nc2ccc(S(=O)(=O)NCCO)cc2N2CCC3(CC2)CC3)nc1N1CC2CC2C1 (centres unmarked) [Compound 346],≤ 100

# The next lines start with the values.
row,IC50 [nM],Compound
1,≤ 100,C[C@@H]1CN(c2nc(C(=O)Nc3ccc(NS(=O)(=O)CCO)cc3N3CCC4(CC3)CC4)ccc2OCF)CCO1 [Compound 546]
2,≤ 100,O=C(Nc1ccc(NS(=O)(=O)CCO)cc1N1CCC2(CC1)CC2)c1ccc(OCF)c(N2CC(F)(F)C2)n1 [Compound 548]
3,≤ 100,CSc1ccc(NC(=O)c2cnc(NS(=O)(=O)CCO)cc2N2CCC3(CC2)CC3)cc1OC1CCC1 [Compound 615]
4,≤ 100,CSc1ccc(NC(=O)c2cnc(NS(=O)(=O)[C@@H](C)CO)cc2N2CCC3(CC2)CC3)cc1N1CCC(F)(F)CC1 [Compound 621]
5,≤ 100,O=C(Nc1ccc(OCF)c(N2CC3CC3C2)c1)c1cnc(NS(=O)(=O)CCO)cc1N1CCC2(CC1)CC2 (centres unmarked) [Compound 458]
6,≤ 100,O=C(Nc1ccc([N+](=O)[O-])c(N2CCOCC2)n1)c1cnc(NS(=O)(=O)CCO)cc1N1CCC2(CC1)CC2 [Compound 140]
7,≤ 100,O=C(Nc1ccc(NS(=O)(=O)CCO)cc1N1CCC2(CC1)CC2)c1ccc(OCF)c(N2CC3CC3C2)n1 (centres unmarked) [Compound 554]
8,≤ 100,O=C(Nc1ccc(OCF)c(N2CCC(F)CC2)c1)c1ccc(NS(=O)(=O)CCO)cc1N1CCC2(CC1)CC2 [Compound 393]
9,≤ 100,C[C@H](CO)NS(=O)(=O)c1cc(N2CCC3(CC2)CC3)c(C(=O)Nc2ccc(OCF)c(N3CCO[C@H](C)C3)c2)cn1 [Compound 480]
10,≤ 100,O=C(Nc1ccc(NS(=O)(=O)CCO)cc1N1CCC2(CC1)CC2)c1ccc(OCF)c(N2CCC(F)CC2)c1 [Compound 521]
11,≤ 100,CSc1ccc(NC(=O)c2cnc(NS(=O)(=O)CCO)cc2N2CCC3(CC2)CC3)cc1N1CCOCC1 [Compound 620]
